Measured values published in the supplement of paper PMC12698765.
± gives the standard deviation of the averaged measurements.

Legend:
[1] = test system: 409B2 hiPSC (iCRISPR Cas9, FRMD7 editing); assay: cell survival relative to solvent control (fold (ratio to mock)); higher = more surviving cells
Experimental: (§1)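 Subset screen of 55 drugs tested at 5 concentrations around the effective screening dose, in 409B2 iCRISPR Cas9 hiPSCs editing FRMD7 with a ssDNA donor. Drugs were applied for 24 h. Viability was read by resazurin and editing outcomes by amplicon sequencing (HDR, NHEJ <2 bp microhomology, MMEJ ≥2 bp microhomology). Values are relative to solvent mock controls; two biological replicates.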

[2] = test system: 409B2 hiPSC (iCRISPR Cas9, FRMD7 editing); assay: NHEJ-attributed indel frequency relative to solvent control (fold (ratio to mock)); higher = more NHEJ outcomes
Experimental: as §1

[3] = test system: 409B2 hiPSC (iCRISPR Cas9, FRMD7 editing); assay: MMEJ-attributed deletion frequency relative to solvent control (fold (ratio to mock)); higher = more MMEJ outcomes
Experimental: as §1

[4] = test system: 409B2 hiPSC (iCRISPR Cas9, FRMD7 editing); assay: HDR (precise edit) frequency relative to solvent control (fold (ratio to mock)); higher = more homology-directed repair outcomes
Experimental: as §1

Question: Which cell survival ([1]; 20 nM) does the source give for `NCCS` [2-Aminoethanethiol] (in DMSO) here?
Answer: 0.948

Question: And the cell survival ([1]; 50 nM)?
Answer: 1.07

Question: And the cell survival ([1]; 100 nM)?
Answer: 0.956

Question: And the cell survival ([1]; 200 nM)?
Answer: 1.08

Question: And the cell survival ([1]; 500 nM)?
Answer: 0.899

Question: What about the NHEJ-attributed indel frequency ([2]; 20 nM) of the same compound?
Answer: 0.979 ± 0.0017

Question: What about the NHEJ-attributed indel frequency ([2]; 50 nM) of the same compound?
Answer: 1.003 ± 0.0053

Question: What about the NHEJ-attributed indel frequency ([2]; 100 nM) of the same compound?
Answer: 0.9962 ± 0.0046

Question: What about the NHEJ-attributed indel frequency ([2]; 200 nM) of the same compound?
Answer: 1 ± 0.022

Question: And the NHEJ-attributed indel frequency ([2]; 500 nM)?
Answer: 1.02 ± 0.052

Question: And the MMEJ-attributed deletion frequency ([3]; 20 nM)?
Answer: 0.917 ± 0.035

Question: And the MMEJ-attributed deletion frequency ([3]; 50 nM)?
Answer: 0.862 ± 0.013

Question: What about the MMEJ-attributed deletion frequency ([3]; 100 nM) of the same compound?
Answer: 0.932 ± 0.18

Question: What about the MMEJ-attributed deletion frequency ([3]; 200 nM) of the same compound?
Answer: 0.976 ± 0.074

Question: And the MMEJ-attributed deletion frequency ([3]; 500 nM)?
Answer: 1.04 ± 0.19

Question: What about the HDR ([4]; 20 nM) of the same compound?
Answer: 1.073 ± 0.0014

Question: What about the HDR ([4]; 50 nM) of the same compound?
Answer: 1.05 ± 0.08

Question: And the HDR ([4]; 100 nM)?
Answer: 0.984 ± 0.019

Question: What about the HDR ([4]; 200 nM) of the same compound?
Answer: 1.12 ± 0.029

Question: And the HDR ([4]; 500 nM)?
Answer: 0.949 ± 0.16

Question: `CC(=O)O[C@@]12CO[C@@H]1C[C@@H](O)[C@@]1(C)C(=O)[C@H](O)C3=C(C)[C@@H](O)C[C@@](O)([C@@H](OC(=O)c4ccccc4)[C@H]21)C3(C)C` [10-DAB (10-Deacetylbaccatin)] (in DMSO) was tested. Which cell survival ([1]; 200 nM) did it give?
Answer: 0.914

Question: What about the cell survival ([1]; 500 nM) of the same compound?
Answer: 1.06

Question: And the cell survival ([1]; 1000 nM)?
Answer: 0.177

Question: What about the cell survival ([1]; 2000 nM) of the same compound?
Answer: 0.00356

Question: And the cell survival ([1]; 5000 nM)?
Answer: 0.00663

Question: And the NHEJ-attributed indel frequency ([2]; 200 nM)?
Answer: 0.906 ± 0.017

Question: What about the NHEJ-attributed indel frequency ([2]; 500 nM) of the same compound?
Answer: 0.983 ± 0.014

Question: And the NHEJ-attributed indel frequency ([2]; 1000 nM)?
Answer: 0.918 ± 0.075

Question: What about the NHEJ-attributed indel frequency ([2]; 2000 nM) of the same compound?
Answer: 0.488 ± 0.08

Question: And the NHEJ-attributed indel frequency ([2]; 5000 nM)?
Answer: 0.522 ± 0.1

Question: And the MMEJ-attributed deletion frequency ([3]; 200 nM)?
Answer: 1.06 ± 0.14

Question: And the MMEJ-attributed deletion frequency ([3]; 500 nM)?
Answer: 1.02 ± 0.049

Question: And the MMEJ-attributed deletion frequency ([3]; 1000 nM)?
Answer: 0.936 ± 0.083

Question: What about the MMEJ-attributed deletion frequency ([3]; 2000 nM) of the same compound?
Answer: 0.561 ± 0.18

Question: What about the MMEJ-attributed deletion frequency ([3]; 5000 nM) of the same compound?
Answer: 0.4879 ± 0.0029

Question: What about the HDR ([4]; 200 nM) of the same compound?
Answer: 1.063 ± 0.0036

Question: What about the HDR ([4]; 500 nM) of the same compound?
Answer: 1 ± 0.049

Question: And the HDR ([4]; 1000 nM)?
Answer: 0.816 ± 0.17

Question: And the HDR ([4]; 2000 nM)?
Answer: 0.304 ± 0.013

Question: And the HDR ([4]; 5000 nM)?
Answer: 0.339 ± 0.06

Question: What does the source list for `CC[C@@]1(O)C(=O)OCc2c1cc1n(c2=O)Cc2cc3cc(O)ccc3nc2-1` [10-Hydroxycamptothecin] (in DMSO)?
Answer: cell survival ([1]; 20 nM): 0.0133; cell survival ([1]; 50 nM): -0.00908; cell survival ([1]; 100 nM): -0.00864; cell survival ([1]; 200 nM): -0.0102; cell survival ([1]; 500 nM): -0.000182; NHEJ-attributed indel frequency ([2]; 20 nM): 0.393 ± 0.053; NHEJ-attributed indel frequency ([2]; 50 nM): 0.378 ± 0.0062; NHEJ-attributed indel frequency ([2]; 100 nM): 0.333 ± 0.045; NHEJ-attributed indel frequency ([2]; 200 nM): 0.267 ± 0.025; NHEJ-attributed indel frequency ([2]; 500 nM): 0.208 ± 0.021; MMEJ-attributed deletion frequency ([3]; 20 nM): 0.686 ± 0.039; MMEJ-attributed deletion frequency ([3]; 50 nM): 0.286 ± 0.059; MMEJ-attributed deletion frequency ([3]; 100 nM): 0.389 ± 0.0056; MMEJ-attributed deletion frequency ([3]; 200 nM): 0.546 ± 0.05; MMEJ-attributed deletion frequency ([3]; 500 nM): 0.474 ± 0.22; HDR ([4]; 20 nM): 0.141 ± 0.075; HDR ([4]; 50 nM): 0.115 ± 0.032; HDR ([4]; 100 nM): 0.106 ± 0.03; HDR ([4]; 200 nM): 0.0697 ± 0.015; HDR ([4]; 500 nM): 0.109 ± 0.033

Question: `C=CC[C@]1(O)CC[C@H]2[C@@H]3CCC4=CC(=O)CCC4=C3C=C[C@@]21C` [Altrenogest] (in DMSO) was tested. Which cell survival ([1]; 20 nM) did it give?
Answer: 1.01

Question: And the cell survival ([1]; 50 nM)?
Answer: 1.11

Question: What about the cell survival ([1]; 100 nM) of the same compound?
Answer: 0.87

Question: And the cell survival ([1]; 200 nM)?
Answer: 1.05

Question: And the cell survival ([1]; 500 nM)?
Answer: 1.06

Question: And the NHEJ-attributed indel frequency ([2]; 20 nM)?
Answer: 0.9775 ± 0.0069

Question: What about the NHEJ-attributed indel frequency ([2]; 50 nM) of the same compound?
Answer: 1.007 ± 0.0051

Question: And the NHEJ-attributed indel frequency ([2]; 100 nM)?
Answer: 1.007 ± 0.0033

Question: What about the NHEJ-attributed indel frequency ([2]; 200 nM) of the same compound?
Answer: 1 ± 0.038

Question: And the NHEJ-attributed indel frequency ([2]; 500 nM)?
Answer: 1.02 ± 0.036

Question: What about the MMEJ-attributed deletion frequency ([3]; 20 nM) of the same compound?
Answer: 1 ± 0.085

Question: What about the MMEJ-attributed deletion frequency ([3]; 50 nM) of the same compound?
Answer: 0.963 ± 0.12

Question: What about the MMEJ-attributed deletion frequency ([3]; 100 nM) of the same compound?
Answer: 1.02 ± 0.12

Question: And the MMEJ-attributed deletion frequency ([3]; 200 nM)?
Answer: 0.888 ± 0.14

Question: What about the MMEJ-attributed deletion frequency ([3]; 500 nM) of the same compound?
Answer: 0.98 ± 0.18

Question: And the HDR ([4]; 20 nM)?
Answer: 1.08 ± 0.065

Question: What about the HDR ([4]; 50 nM) of the same compound?
Answer: 1.08 ± 0.06

Question: What about the HDR ([4]; 100 nM) of the same compound?
Answer: 1.024 ± 0.0079

Question: What about the HDR ([4]; 200 nM) of the same compound?
Answer: 1.048 ± 0.0023

Question: What about the HDR ([4]; 500 nM) of the same compound?
Answer: 1.01 ± 0.088

Question: Which cell survival ([1]; 200 nM) does the source give for `CO[C@H]1O[C@@H]2O[C@@]3(C)CC[C@H]4[C@H](C)CC[C@@H]([C@H]1C)[C@@]24OO3` [Artemether (SM-224)] (in DMSO) here?
Answer: 0.947

Question: What about the cell survival ([1]; 500 nM) of the same compound?
Answer: 1.23

Question: What about the cell survival ([1]; 1000 nM) of the same compound?
Answer: 0.644

Question: What about the cell survival ([1]; 2000 nM) of the same compound?
Answer: 1.09

Question: And the cell survival ([1]; 5000 nM)?
Answer: 1.03

Question: What about the NHEJ-attributed indel frequency ([2]; 200 nM) of the same compound?
Answer: 0.983 ± 0.012

Question: And the NHEJ-attributed indel frequency ([2]; 500 nM)?
Answer: 0.976 ± 0.022

Question: And the NHEJ-attributed indel frequency ([2]; 1000 nM)?
Answer: 0.958 ± 0.011

Question: And the NHEJ-attributed indel frequency ([2]; 2000 nM)?
Answer: 1 ± 0.024

Question: What about the NHEJ-attributed indel frequency ([2]; 5000 nM) of the same compound?
Answer: 1.02 ± 0.037

Question: And the MMEJ-attributed deletion frequency ([3]; 200 nM)?
Answer: 0.853 ± 0.13

Question: And the MMEJ-attributed deletion frequency ([3]; 500 nM)?
Answer: 0.935 ± 0.072

Question: What about the MMEJ-attributed deletion frequency ([3]; 1000 nM) of the same compound?
Answer: 0.804 ± 0.037

Question: What about the MMEJ-attributed deletion frequency ([3]; 2000 nM) of the same compound?
Answer: 0.907 ± 0.14

Question: What about the MMEJ-attributed deletion frequency ([3]; 5000 nM) of the same compound?
Answer: 0.946 ± 0.026

Question: What about the HDR ([4]; 200 nM) of the same compound?
Answer: 1.06 ± 0.036

Question: What about the HDR ([4]; 500 nM) of the same compound?
Answer: 1.13 ± 0.018

Question: And the HDR ([4]; 1000 nM)?
Answer: 1.123 ± 0.0055

Question: And the HDR ([4]; 2000 nM)?
Answer: 1.09 ± 0.11

Question: What about the HDR ([4]; 5000 nM) of the same compound?
Answer: 1.17 ± 0.15

Question: `Cc1ccc(NC(=O)c2ccc(CN3CC[C@H](N(C)C)C3)c(C(F)(F)F)c2)cc1Nc1nccc(-c2cncnc2)n1` [Bafetinib (INNO-406)] (in DMSO) was tested. Which cell survival ([1]; 2000 nM) did it give?
Answer: 1.07

Question: What about the cell survival ([1]; 5000 nM) of the same compound?
Answer: 1.36

Question: What about the cell survival ([1]; 10000 nM) of the same compound?
Answer: 0.818

Question: What about the cell survival ([1]; 20000 nM) of the same compound?
Answer: 0.096

Question: What about the cell survival ([1]; 50000 nM) of the same compound?
Answer: 0.0107

Question: And the NHEJ-attributed indel frequency ([2]; 2000 nM)?
Answer: 0.9931 ± 0.002

Question: What about the NHEJ-attributed indel frequency ([2]; 5000 nM) of the same compound?
Answer: 1.004 ± 0.0057

Question: And the NHEJ-attributed indel frequency ([2]; 10000 nM)?
Answer: 1.06 ± 0.025

Question: And the NHEJ-attributed indel frequency ([2]; 20000 nM)?
Answer: 1.03 ± 0.11

Question: What about the NHEJ-attributed indel frequency ([2]; 50000 nM) of the same compound?
Answer: 0.525

Question: And the MMEJ-attributed deletion frequency ([3]; 2000 nM)?
Answer: 1.04 ± 0.012

Question: What about the MMEJ-attributed deletion frequency ([3]; 5000 nM) of the same compound?
Answer: 0.89 ± 0.082

Question: What about the MMEJ-attributed deletion frequency ([3]; 10000 nM) of the same compound?
Answer: 1.13 ± 0.045

Question: And the MMEJ-attributed deletion frequency ([3]; 20000 nM)?
Answer: 1.32 ± 0.11

Question: And the MMEJ-attributed deletion frequency ([3]; 50000 nM)?
Answer: 0.621

Question: And the HDR ([4]; 2000 nM)?
Answer: 1.04 ± 0.053

Question: What about the HDR ([4]; 5000 nM) of the same compound?
Answer: 1.066 ± 0.0049

Question: What about the HDR ([4]; 10000 nM) of the same compound?
Answer: 1.03 ± 0.1

Question: What about the HDR ([4]; 20000 nM) of the same compound?
Answer: 0.775 ± 0.27

Question: And the HDR ([4]; 50000 nM)?
Answer: 0.282
